Test results reported in patent US10363257B2 (ZENITH EPIGENETICS LTD., priority 2013, dated 2019).

Key:
[1] = target: T1, Brd4 bromodomain 1 (BRD4(1)) (Homo sapiens, UniProt O60885); test: Inhibition of tetra-acetylated histone H4 binding to Brd4 bromodomain 1 (TR-FRET); conditions: tetra-acetylated histone H4 peptide, first bromodomain of Brd4
T1 construct: made in house; host or cells: E. coli BL21(DE3)
Protocol: Proteins were cloned and overexpressed with a N-terminal 6× His tag, then purified by nickel affinity followed by size exclusion chromatography. Briefly, E.coli BL21(DE3) cells were transformed with a recombinant expression vector encoding N-terminally Nickel affinity tagged bromodomains from Brd2, Brd3, Brd4. Cell cultures were incubated at 37° C. with shaking to the appropriate density and induced overnight with IPTG. The supernatant of lysed cells was loaded onto Ni-IDA column for purification. Eluted protein was pooled, concentrated and further purified by size exclusion chromatography. Fractions representing monomeric protein were pooled, concentrated, aliquoted, and frozen at −80° C. for use in subsequent experiments.
Binding of tetra-acetylated histone H4 and BET bromodomains was confirmed by a Time Resolved Fluorescence Resonance Energy Transfer (TR-FRET) method. N-terminally His-tagged bromodomains (200 nM) and biotinylated tetra-acetylated histone H4 peptide (25-50 nM, Millipore) were incubated in the presence of Europium Cryptate-labeled streptavidin (Cisbio Cat. #610SAKLB) and XL665-labeled monoclonal anti-His antibody (Cisbio Cat. #61HISXLB) in a white 96 well microtiter plate (Greiner). For inhibition assays, serially diluted test compound was added to these reactions in a 0.2% final concentration of DMSO. Final buffer concentrations were 30 mM HEPES pH 7.4, 30 mM NaCl, 0.3 mM CHAPS, 20 mM phosphate pH 7.0, 320 mM KF, 0.08% BSA). After a 2-h incubation at room temperature, the fluorescence by FRET was measured at 665 and 620 nm by a SynergyH4 plate reader (Biotek). The binding inhibitory activity was shown by a decrease in 665 nm fluorescence relative to 620 nm. IC50 values were determined from a dose response curve.

[2] = test system: c-myc; test: Inhibition of c-myc expression (mRNA, real-time PCR) in MV4-11 cells; assay type: cell-based; conditions: Human AML MV4-11 cells, 3 h, cMYC mRNA
Protocol: MV4-11 cells (CRL-9591) were plated at a density of 2.5×10^4 cells per well in 96 well U-bottom plates and treated with increasing concentrations of test compound or DMSO (0.1%) in IMDM media containing 10% FBS and penicillin/streptomycin, and incubated for 3 h at 37° C. Triplicate wells were used for each concentration. Cells were pelleted by centrifugation and harvested using the mRNA Catcher PLUS kit according to manufacturer's instructions. The eluted mRNA isolated was then used in a one-step quantitative real-time PCR reaction, using components of the RNA UltraSense™ One-Step Kit (Life Technologies) together with Applied Biosystems TaqMan® primer-probes for cMYC and Cyclophilin. Real-time PCR plates were run on a VIaTM7 real time PCR machine (Applied Biosystems), data was analyzed, normalizing the Ct values for cMYC to an internal control, prior to determining the fold expression of each sample, relative to the control.

[3] = test system: human AML MV-4-11 cells; test: Inhibition of cell proliferation in MV4-11 cells (CellTiter Aqueous One); assay type: cell-based; conditions: MV4-11, 72 h
Protocol: MV4-11 cells: 96-well plates were seeded with 5×10^4 cells per well of exponentially growing human AML MV-4-11 (CRL-9591) cells and immediately treated with two-fold dilutions of test compounds, ranging from 30 μM to 0.2 μM. Triplicate wells were used for each concentration, as well as a media only and three DMSO control wells. The cells and compounds were incubated at 37° C., 5% CO2 for 72 h before adding 20 μL of the CellTiter Aqueous One Solution (Promega) to each well and incubating at 37° C., 5% CO2 for an additional 3-4 h. The absorbance was taken at 490 nm in a spectrophotometer and the percentage of proliferation relative to DMSO-treated cells was calculated after correction from the blank well. IC50 were calculated using the GraphPad Prism software.

Compound | IC50 [1] [nM] | IC50 [2] [nM] | IC50 [3] [nM]
Cn1nccc1-c1cnc2[nH]c(=O)n(Cc3ccccc3)c2c1 [compound 171, 1-benzyl-6-(1-methyl-1H-pyrazol-5-yl)-1H-imidazo[4,5-b]pyridin-2(3H)-one] | 300 to 3000 | 300 to 3000 | 300 to 3000
Cc1noc(C)c1-c1cc([N+](=O)[O-])c2[nH]c(=O)n([C@@H](C)c3ccccc3)c2c1 [compound 172, (S)-6-(3,5-dimethylisoxazol-4-yl)-4-nitro-1-(1-phenylethyl)-1H-benzo[d]imidazol-2(3H)-one] | ≤ 300 | ≤ 300 | 300 to 3000
Cc1noc(C)c1-c1ccc2c(c1)N(Cc1ccccc1)[C@H](C)C(=O)N2 [compound 174, (R)-4-benzyl-6-(3,5-dimethylisoxazol-4-yl)-3-methyl-3,4-dihydroquinoxalin-2(1H)-one] | ≤ 300 | 300 to 3000 | 300 to 3000
Cn1nccc1-c1cnc2nc(NC3CCOCC3)n(Cc3ccccc3)c2c1 [compound 176, 1-benzyl-6-(1-methyl-1H-pyrazol-5-yl)-N-(tetrahydro-2H-pyran-4-yl)-1H-imidazo[4,5-b]pyridin-2-amine] | 300 to 3000 | 300 to 3000 | 300 to 3000
Cc1noc(C)c1-c1cc(N)c2[nH]c(=O)n([C@@H](C)c3ccccc3)c2c1 [compound 178, (S)-4-amino-6-(3,5-dimethylisoxazol-4-yl)-1-(1-phenylethyl)-1H-benzo[d]imidazol-2(3H)-one] | ≤ 300 | ≤ 300 | 300 to 3000
Cc1noc(C)c1-c1cc(N)c2[nH]c(=O)n([C@H](C)c3ccccc3)c2c1 [compound 179, (R)-4-amino-6-(3,5-dimethylisoxazol-4-yl)-1-(1-phenylethyl)-1H-benzo[d]imidazol-2(3H)-one] | ≤ 300 | ≤ 300 | ≤ 300
Cc1noc(C)c1-c1cnc2[nH]c(=O)n(Cc3ccccc3)c2c1C [compound 180, 1-benzyl-6-(3,5-dimethylisoxazol-4-yl)-7-methyl-1H-imidazo[4,5-b]pyridin-2(3H)-one] | ≤ 300 | 300 to 3000 | 300 to 3000

Next, values leading:

IC50 [1] [nM] | IC50 [2] [nM] | IC50 [3] [nM] | Compound
≤ 300 | 300 to 3000 | 300 to 3000 | Cc1noc(C)c1-c1cc(S(C)(=O)=O)c2nc(C)n(Cc3ccccc3)c2c1 [compound 168, 4-(1-benzyl-2-methyl-4-(methylsulfonyl)-1H-benzo[d]imidazol-6-yl)-3,5-dimethylisoxazole]
≤ 300 | ≤ 300 | ≤ 300 | Cc1noc(C)c1-c1cnc2nc(NCc3ccncc3)n(Cc3ccccc3)c2c1 [compound 169, 1-benzyl-6-(3,5-dimethylisoxazol-4-yl)-N-(pyridin-4-ylmethyl)-1H-imidazo[4,5-b]pyridin-2-amine]
≤ 300 | ≤ 300 | ≤ 300 | Cc1noc(C)c1-c1cnc2nc(NC3CCOCC3)n(Cc3ccccc3)c2c1 [compound 170, 1-benzyl-6-(3,5-dimethylisoxazol-4-yl)-N-(tetrahydro-2H-pyran-4-yl)-1H-imidazo[4,5-b]pyridin-2-amine]
≤ 300 | ≤ 300 | 300 to 3000 | Cc1noc(C)c1-c1cc(O)c2nc(C)n(Cc3ccccc3)c2c1 [compound 173, 1-benzyl-6-(3,5-dimethylisoxazol-4-yl)-2-methyl-1H-benzo[d]imidazol-4-ol]
300 to 3000 | ≤ 300 | ≤ 300 | Cc1noc(C)c1-c1cc(N)c2[nH]c(=S)n(Cc3ccccc3)c2c1 [compound 177, 4-amino-1-benzyl-6-(3,5-dimethylisoxazol-4-yl)-1H-benzo[d]imidazole-2(3H)-thione]
≤ 300 | ≤ 300 | 300 to 3000 | Cc1noc(C)c1-c1cnc2nc(C)n(Cc3ccccc3)c2c1C [compound 181, 4-(1-benzyl-2,7-dimethyl-1H-imidazo[4,5-b]pyridin-6-yl)-3,5-dimethylisoxazole]
